The text below walks through data of ChEMBL document CHEMBL1821675, “The selective P-TEFb inhibitor CAN508 targets angiogenesis” (Eur J Med Chem, 2011).

Active and inactive are the calls of the source. No cut-off for these calls is given here.

Broadly, the GI50 is the concentration giving 50% growth inhibition. By IC50 is commonly meant the concentration at which inhibition is half-maximal.

Assay [1] is described as follows: Antiangiogenic activity in VEGF-stimulated HMEC1 assessed as reduction in median length of tube at 20 uM after 16 hrs by photographic analysis. More on the design: scale not given: the % may be the effect or the level left. In kind it is functional, Homo sapiens, HMEC-1.
In a further assay the test system is HUVEC. In words: Antiangiogenic activity against HUVEC cells assessed as inhibition of VEGF-induced cell migration-associated wound closure at >10 uM after 16 hrs by microscopic analysis. As to conditions: Homo sapiens. Type of assay: functional, cell-based.
For assay [2], the target named is Serine/threonine-protein kinase 26 (Homo sapiens) (UniProt Q9P289). In words: Inhibition of MST4 assessed as residual activity at 10 uM by radioactivity assay in presence of 20 uM ATP.
Serine/threonine-protein kinase 26 (Homo sapiens), sequence (Q9P289 2-416 limits assumed): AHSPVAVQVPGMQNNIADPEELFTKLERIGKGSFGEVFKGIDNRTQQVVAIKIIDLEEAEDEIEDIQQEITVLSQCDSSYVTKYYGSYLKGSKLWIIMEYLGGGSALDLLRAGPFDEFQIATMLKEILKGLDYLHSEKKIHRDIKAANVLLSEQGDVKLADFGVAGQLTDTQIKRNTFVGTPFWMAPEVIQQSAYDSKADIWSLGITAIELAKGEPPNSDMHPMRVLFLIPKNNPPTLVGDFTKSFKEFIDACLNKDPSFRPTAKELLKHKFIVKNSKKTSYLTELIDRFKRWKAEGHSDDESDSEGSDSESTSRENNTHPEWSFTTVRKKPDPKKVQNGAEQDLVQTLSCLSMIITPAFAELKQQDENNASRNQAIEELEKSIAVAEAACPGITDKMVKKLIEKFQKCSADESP
The test system of another assay is MOLT-4. In words: Cytotoxicity against human MOLT4 cells. In kind it is functional.
The nature of assay [3]: Inhibition of TNF-alpha-induced Nuclear factor-kappa-B-mediated ICAM-1 expression in human HMEC1 cells after 24 hrs by FACS analysis. In kind it is cell-based. The following applies: HMEC-1, 24 h. In general terms: Flow cytometry measures light scatter and fluorescence of single cells or particles in a stream.
The test system of another assay is CCRF-CEM. In words: Cytotoxicity against human CCRF-CEM cells. In kind it is functional.
Assay [4] has as its target Ephrin type-B receptor 3 (Homo sapiens) (UniProt P54753). In words: Inhibition of EPH-B3 assessed as residual activity at 10 uM by radioactivity assay in presence of 20 uM ATP.
A further assay has as its system Malme-3M. In words: Cytotoxicity against human MALME-3M cells. Type of assay: functional.
A further assay relates to CAKI-1. In words: Cytotoxicity against human Caki1 cells. In kind it is functional.
For assay [5], the target named is Casein kinase I isoform delta (Homo sapiens) (UniProt P48730). In words: Inhibition of CK1delta assessed as residual activity at 10 uM by radioactivity assay in presence of 20 uM ATP.
Casein kinase I isoform delta (Homo sapiens), sequence (P48730 whole entry, looked up, canonical isoform): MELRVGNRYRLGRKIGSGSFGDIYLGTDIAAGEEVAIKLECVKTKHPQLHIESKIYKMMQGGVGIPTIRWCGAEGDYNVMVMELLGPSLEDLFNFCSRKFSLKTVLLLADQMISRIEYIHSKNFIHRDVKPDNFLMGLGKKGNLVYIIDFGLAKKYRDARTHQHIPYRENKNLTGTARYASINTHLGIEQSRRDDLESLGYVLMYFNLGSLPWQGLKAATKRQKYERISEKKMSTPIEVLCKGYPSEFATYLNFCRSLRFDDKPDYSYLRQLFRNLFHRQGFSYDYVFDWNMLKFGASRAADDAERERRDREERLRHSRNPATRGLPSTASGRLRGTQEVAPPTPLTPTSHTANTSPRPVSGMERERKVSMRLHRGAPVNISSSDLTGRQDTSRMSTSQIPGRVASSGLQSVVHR
The target of assay [6] is Receptor-interacting serine/threonine-protein kinase 2 (Homo sapiens) (UniProt O43353). In words: Inhibition of RIPK2 assessed as residual activity at 10 uM by radioactivity assay in presence of 20 uM ATP.
Receptor-interacting serine/threonine-protein kinase 2 (Homo sapiens), sequence (O43353 whole entry): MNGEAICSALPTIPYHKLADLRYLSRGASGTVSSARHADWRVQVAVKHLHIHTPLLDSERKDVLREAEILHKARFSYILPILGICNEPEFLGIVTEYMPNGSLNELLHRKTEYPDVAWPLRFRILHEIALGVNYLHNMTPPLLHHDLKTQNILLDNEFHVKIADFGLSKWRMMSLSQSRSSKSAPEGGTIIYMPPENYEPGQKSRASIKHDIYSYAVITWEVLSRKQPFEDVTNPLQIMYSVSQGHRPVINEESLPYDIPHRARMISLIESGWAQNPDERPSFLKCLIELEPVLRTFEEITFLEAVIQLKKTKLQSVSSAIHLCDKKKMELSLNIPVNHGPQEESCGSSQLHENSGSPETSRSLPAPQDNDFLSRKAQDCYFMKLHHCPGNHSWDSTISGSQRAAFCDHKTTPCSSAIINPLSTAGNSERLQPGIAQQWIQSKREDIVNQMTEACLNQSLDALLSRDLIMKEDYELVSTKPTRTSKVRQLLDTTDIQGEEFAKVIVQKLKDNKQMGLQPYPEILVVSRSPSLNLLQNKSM
The next assay has as its system DU-145. In words: Cytotoxicity against human DU145 cells. Type of assay: functional.
Assay [7] deals with Serine/threonine-protein kinase 3 (Homo sapiens) (UniProt Q13188). In words: Inhibition of MST2 assessed as residual activity at 10 uM by radioactivity assay in presence of 20 uM ATP.
Serine/threonine-protein kinase 3 (Homo sapiens), sequence (Q13188 whole entry): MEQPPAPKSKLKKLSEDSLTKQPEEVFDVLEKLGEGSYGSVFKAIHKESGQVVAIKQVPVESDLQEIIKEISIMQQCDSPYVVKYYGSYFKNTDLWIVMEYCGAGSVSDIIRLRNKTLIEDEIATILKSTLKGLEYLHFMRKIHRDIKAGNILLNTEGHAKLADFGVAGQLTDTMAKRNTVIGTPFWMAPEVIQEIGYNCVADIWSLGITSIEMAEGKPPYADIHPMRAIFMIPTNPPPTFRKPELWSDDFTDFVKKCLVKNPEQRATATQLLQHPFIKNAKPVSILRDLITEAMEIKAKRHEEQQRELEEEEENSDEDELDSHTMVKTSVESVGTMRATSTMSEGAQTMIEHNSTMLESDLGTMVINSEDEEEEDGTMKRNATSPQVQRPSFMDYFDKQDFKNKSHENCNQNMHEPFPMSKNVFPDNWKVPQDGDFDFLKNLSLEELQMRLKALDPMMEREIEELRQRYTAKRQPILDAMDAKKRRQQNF
Assay [8] addresses Calcium/calmodulin-dependent protein kinase kinase 2 (Homo sapiens) (UniProt Q96RR4). In words: Inhibition of CAMKKbeta assessed as residual activity at 10 uM by radioactivity assay in presence of 20 uM ATP.
The target of assay [9] is Mitogen-activated protein kinase 11 (Homo sapiens) (UniProt Q15759). In words: Inhibition of p38beta MAPK assessed as residual activity at 10 uM by radioactivity assay in presence of 20 uM ATP.
Mitogen-activated protein kinase 11 (Homo sapiens), sequence (Q15759 whole entry): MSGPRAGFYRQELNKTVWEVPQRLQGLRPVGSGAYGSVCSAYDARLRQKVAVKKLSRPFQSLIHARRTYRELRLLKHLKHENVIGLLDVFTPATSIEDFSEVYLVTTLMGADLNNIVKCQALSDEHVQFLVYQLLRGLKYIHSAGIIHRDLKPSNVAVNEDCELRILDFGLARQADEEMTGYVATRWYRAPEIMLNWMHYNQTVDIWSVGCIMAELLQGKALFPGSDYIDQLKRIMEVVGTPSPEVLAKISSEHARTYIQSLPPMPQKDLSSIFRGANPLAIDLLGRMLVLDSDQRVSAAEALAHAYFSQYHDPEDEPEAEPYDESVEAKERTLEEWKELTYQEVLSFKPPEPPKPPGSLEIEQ

Calcium/calmodulin-dependent protein kinase kinase 2 (Homo sapiens), sequence (Q96RR4 2-588 limits assumed): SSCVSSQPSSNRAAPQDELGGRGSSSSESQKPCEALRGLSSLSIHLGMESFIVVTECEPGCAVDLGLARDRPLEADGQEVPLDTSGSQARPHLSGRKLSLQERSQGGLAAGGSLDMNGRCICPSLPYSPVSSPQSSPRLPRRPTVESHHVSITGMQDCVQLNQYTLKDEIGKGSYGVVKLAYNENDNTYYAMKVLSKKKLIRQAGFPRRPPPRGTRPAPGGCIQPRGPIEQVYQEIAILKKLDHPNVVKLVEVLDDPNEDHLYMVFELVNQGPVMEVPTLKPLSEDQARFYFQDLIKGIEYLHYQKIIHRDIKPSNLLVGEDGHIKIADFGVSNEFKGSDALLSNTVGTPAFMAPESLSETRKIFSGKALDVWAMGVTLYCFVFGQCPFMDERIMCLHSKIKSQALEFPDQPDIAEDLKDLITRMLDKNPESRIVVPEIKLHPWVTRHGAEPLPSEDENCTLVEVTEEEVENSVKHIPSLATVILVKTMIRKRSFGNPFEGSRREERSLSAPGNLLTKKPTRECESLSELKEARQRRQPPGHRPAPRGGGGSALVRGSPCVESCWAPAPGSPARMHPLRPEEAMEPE
Ephrin type-B receptor 3 (Homo sapiens), sequence (P54753 whole entry): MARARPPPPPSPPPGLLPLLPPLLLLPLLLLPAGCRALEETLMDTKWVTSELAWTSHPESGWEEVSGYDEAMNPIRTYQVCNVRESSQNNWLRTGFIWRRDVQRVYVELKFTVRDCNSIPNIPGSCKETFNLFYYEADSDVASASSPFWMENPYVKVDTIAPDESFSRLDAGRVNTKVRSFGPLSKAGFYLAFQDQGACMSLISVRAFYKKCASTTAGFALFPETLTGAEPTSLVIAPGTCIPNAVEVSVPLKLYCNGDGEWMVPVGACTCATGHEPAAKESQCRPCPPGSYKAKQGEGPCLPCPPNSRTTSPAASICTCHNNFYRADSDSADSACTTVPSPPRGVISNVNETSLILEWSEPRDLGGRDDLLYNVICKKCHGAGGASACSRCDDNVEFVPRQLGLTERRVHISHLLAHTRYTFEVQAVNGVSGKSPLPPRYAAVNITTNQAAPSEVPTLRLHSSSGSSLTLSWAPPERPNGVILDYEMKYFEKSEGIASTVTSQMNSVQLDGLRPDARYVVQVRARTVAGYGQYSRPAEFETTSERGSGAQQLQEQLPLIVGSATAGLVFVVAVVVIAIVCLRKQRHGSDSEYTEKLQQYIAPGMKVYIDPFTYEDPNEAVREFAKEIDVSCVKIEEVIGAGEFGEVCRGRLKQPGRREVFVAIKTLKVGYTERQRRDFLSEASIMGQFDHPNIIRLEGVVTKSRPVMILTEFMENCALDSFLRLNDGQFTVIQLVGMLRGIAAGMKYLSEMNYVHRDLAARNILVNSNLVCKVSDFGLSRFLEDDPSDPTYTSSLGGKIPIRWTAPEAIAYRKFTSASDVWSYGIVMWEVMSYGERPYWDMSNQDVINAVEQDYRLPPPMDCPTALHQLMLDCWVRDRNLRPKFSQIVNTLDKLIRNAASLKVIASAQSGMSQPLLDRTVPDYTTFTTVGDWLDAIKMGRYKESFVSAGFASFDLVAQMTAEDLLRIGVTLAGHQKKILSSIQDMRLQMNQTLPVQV

For the molecule `Nc1n[nH]c(N)c1/N=N/c1ccc(O)cc1`, the Activity was 30% in [1]; 77% in [2]; 45% in [4]; 27% in assay [5]; 57% in assay [6]; 57% in assay [7]. Besides, the Activity was found to be 52% in assay [8] and 102% in assay [9]. For the same molecule, in the assay on HUVEC, the inhibition entry was “Active”. Also, the GI50 in the assay on MOLT-4 is 13.5 µM; in the assay on CCRF-CEM, 20 µM; in the assay on Malme-3M, 24.5 µM; in the assay on CAKI-1, 14.8 µM; in the assay with DU-145, 17 µM. For the same molecule, the IC50 in assay [3] worked out at 20 µM.
